In the Deep4Chem optical property database:

Experiment: solvent given as SMILES

`Cc1c(C(=O)c2ccccc2Cl)c2ccc3cccc4c5cccc6ccc1c(c65)c2c34` showed an absorption maximum (in ClCCl) of 390 nm.
`Nc1ccc2[nH]ncc2c1` gave an absorption maximum (in C1CCCCC1) of 326 nm.
For `O=C1OC(c2ccccc2)=C/C1=C\c1ccccc1`, the absorption maximum (in C1COCCO1) was 442 nm.
Compound `COc1ccc(-c2cc(-c3ccc(C)cc3)c(C#N)c(OC)n2)cc1` has an absorption maximum (in C1CCOC1) of 339 nm, an absorption maximum (in CC#N) of 338 nm and an absorption maximum (in CC(C)=O) of 340 nm. It also gave an absorption maximum (in CCCCCC) of 334 nm, an absorption maximum (in CCOC(C)=O) of 335 nm and an absorption maximum (in CN(C)C=O) of 343 nm. The absorption maximum (in CO) was 338 nm, the absorption maximum (in CS(C)=O) was 344 nm and the absorption maximum (in ClC(Cl)Cl) was 341 nm.
`CCCCCn1c2ccc(S(=O)(=O)Cl)cc2c(=O)c2cc(S(=O)(=O)Cl)ccc21` gave an absorption maximum (in CS(C)=O) of 406 nm.
Work on `CN(C)c1ccc(-c2ccc(/C=C/c3ccncn3)cc2)cc1` yielded an absorption maximum (in ClCCl) of 386 nm.
`CC1=CC(/C=C/c2ccc(C)cc2)=[N+]2C1=C(c1ccccc1)c1c(C)cc(/C=C/c3ccc(C)cc3)n1[B-]2(F)F` gave an absorption maximum (in CC1CCCO1) of 631 nm.
`CCCCCCN1C(=O)c2cccc3c(-c4sc(-c5ccc6c7c(cccc57)C(=O)N(CCCCCC)C6=O)c5c4OCCO5)ccc(c23)C1=O` showed an absorption maximum (in ClC(Cl)Cl) of 416 nm.
With `C1=C(c2ccccc2)C=C(c2ccccc2)/C1=C/c1ccc2ccc3cccc4ccc1c2c34` the absorption maximum (in C1CCOC1) was 422 nm.
`Clc1ccccc1N1c2sc3ccccc3c2Sc2c1sc1ccccc21` showed an absorption maximum (in ClCCl) of 421 nm.
`CCC1=C(C)C(=O)n2c1cc1c(C)c(CC)c(C)n1c2=O` showed an absorption maximum (in CC#N) of 423 nm, an absorption maximum (in CC(C)=O) of 422 nm and an absorption maximum (in CO) of 428 nm. It also gave an absorption maximum (in CS(C)=O) of 428 nm, an absorption maximum (in ClC(Cl)Cl) of 432 nm and an absorption maximum (in c1ccccc1) of 428 nm.
Work on `CC(C)[Si]1(C(C)C)c2cc(N(C)C)ccc2-c2ccc(C(F)(F)F)cc21` yielded an absorption maximum (in C1CCCCC1) of 331 nm, an absorption maximum (in CC#N) of 337 nm and an absorption maximum (in CCO) of 335 nm. The absorption maximum (in CCOCC) was 334 nm, the absorption maximum (in CS(C)=O) was 344 nm and the absorption maximum (in ClCCl) was 338 nm. It also gave an absorption maximum (in c1ccccc1) of 338 nm.
In the case of `C#Cc1ccc2c(C)cc(=O)oc2c1`, the absorption maximum (in CCO) is reported as 325 nm.
`CCNc1cc2oc3c/c(=[NH+]\CC)c(C)cc-3c(-c3ccccc3C(=O)OCC)c2cc1C` gave an absorption maximum (in CC#N) of 524 nm, an absorption maximum (in CCO) of 527 nm and an absorption maximum (in CN(C)C=O) of 534 nm. It also gave an absorption maximum (in CO) of 530 nm and an absorption maximum (in O) of 525 nm.
`CN(C)c1ccc2c(c1)C(C)(C)C(=O)C=C2` gave an absorption maximum (in O) of 413 nm.
`COc1ccc(-c2c(-c3ccc(OC)cc3)c3c4c(cccc4c2-c2ccccc2)C(=O)c2ccccc2-3)cc1` gave an absorption maximum (in CC#N) of 402 nm and an absorption maximum (in CO) of 407 nm.
Work on `COc1ccc(/C=C/C(=O)c2ccccc2O)cc1OC` yielded an absorption maximum (in C1CCOC1) of 350 nm, an absorption maximum (in C1COCCO1) of 354 nm and an absorption maximum (in CC#N) of 352 nm. It also gave an absorption maximum (in CCCO) of 360 nm, an absorption maximum (in CCO) of 359 nm and an absorption maximum (in CN(C)C=O) of 362 nm. For the same compound, the absorption maximum (in CO) was 357 nm, the absorption maximum (in CS(C)=O) was 365 nm and the absorption maximum (in ClC(Cl)Cl) was 355 nm. The absorption maximum (in ClCCl) was 353 nm.
